The results in this text go back to patent US4443536A, “Nondiffusible photographic couplers and photographic elements and processes employing same” (Eastman Kodak Company, priority 1982, dated 1984).

This data set in a line: Dye hue from spectrophotometric curves: λ-max, half band width, curve shape factor. The following applies: for CSF (curve shape factor, 100 X TBW/HBW) / HBW (half band width) / λ-max (maximum absorption peak of dye): Table I; for CSF / HBW / λ-max: Table II. The method, then:
Photographic elements containing couplers of this invention and control couplers were prepared and tested according to the procedures described below.
The photosensitive layer was overcoated with a layer containing gelatin at 1.08 g/m^2 and bis-vinyl-sulfonylmethyl ether at 1.75 weight percent based on total gelatin.
Samples of each element were imagewise exposed through a graduated-density test object and processed at 40° C. employing one of three color developing solutions identified below then stopped, bleached, fixed and washed.
In each element, well-defined, dye images were produced which were evaluated by plotting dye density vs. log exposure sensitometric curves and recording the maximum dye density (Dmax) and gamma (γ) i.e., the contrast determined by the slope of the straight line portion of the curve. Additionally, dye hues were evaluated from spectrophotometric curves by measuring the maximum absorption peak (λmax) normalized to a density of 1.0 and the half band width (HBW). Halfband width is the width, in nanometers, of the spectrophotometric curve at one-half the difference between maximum density and stain. Similarly, the top-band width (TBW) and bottom-band width (BBW) of the curve were measured at three-fourths and one-fourth, respectively, of the normalized density. Curve shape factor (CSF) equals 100 X TBW/HBW and provides a ratio of the width near the top and bottom of the absorption curve. The greater this ratio, the steeper are the sides of the absorption peak, and the more efficient is the dye's absorption of light in its spectral region.
Photographic elements containing additional couplers of this invention were prepared, processed and evaluated as described above in connection with Examples 1-14.

[1] abbreviates: coupler solvent CS-1, developer D-1.
Setting [2] is: coupler solvent CS-2, developer D-2.
[3] abbreviates: coupler solvent CS-2, developer D-3.
Where [4] appears, read: coupler solvent CS-3, developer D-2.
Setting [5] is: coupler solvent CS-3, developer D-1.
Setting [6] is: coupler solvent CS-3, developer D-3.
Setting [7] is: coupler solvent CS-4, developer D-3.

Values joined by “and” are separate entries in the source; they are usually repeats but may differ in a detail not shown here. Identical values can stand only once.

In the case of `CCCCCCCCCCCCCCCc1cccc(OC(CC)C(=O)NC2=NN(c3c(C)cc(C)cc3Cl)C(=O)C2)c1` (stereo not drawn) [CC-1, reference compound], under setting [1], the “CSF (curve shape factor, 100 X TBW/HBW)” value was 43.3 and 43.6 and 43.1; the “HBW (half band width)” value is listed as 94 nanometers; the “λ-max (maximum absorption peak of dye)” value is 531.

Turning to `CCCCCCCCCCCCC(Oc1ccc(O)c(C(C)(C)C)c1)C(=O)Nc1ccc(Cl)c(NC2=NN(c3c(Cl)cc(Cl)cc3Cl)C(=O)C2)c1` (stereo not drawn) [CC-2, reference compound], under setting [2], the “CSF (curve shape factor, 100 X TBW/HBW)” value was 46.3 and 39.5 and 39.9; the “HBW (half band width)” value was 81 nanometers and 79 nanometers and 78 nanometers; the “λ-max (maximum absorption peak of dye)” value was 539 and 540. For the same molecule, under setting [3], the “CSF (curve shape factor, 100 X TBW/HBW)” value was 40.4; the “HBW (half band width)” value is on record as 79 nanometers; the “λ-max (maximum absorption peak of dye)” value turned out to be 545.

For the molecule `CCC(C)(C)c1ccc(OCC(=O)Nc2cccc(C(=O)NC3=NN(c4c(Cl)cc(Cl)cc4Cl)C(=O)C3)c2)c(C(C)(C)CC)c1` [CC-3, reference compound], under setting [3], the “CSF (curve shape factor, 100 X TBW/HBW)” value is recorded as 45.3; the “HBW (half band width)” value was found to be 88 nanometers; the “λ-max (maximum absorption peak of dye)” value was 556.

On to `CCc1c(Cl)cc(NC(=O)C(CC)Oc2ccc(C(C)(C)CC)cc2C(C)(C)CC)c(O)c1Cl` (stereo not drawn) [CC-4, reference compound], for which, under setting [4], the “CSF (curve shape factor, 100 X TBW/HBW)” value was 45.2; the “HBW (half band width)” value is given as 141 nanometers; the “λ-max (maximum absorption peak of dye)” value stood at 659.

Regarding `CCCCCCCCCCCCCCCCS(=O)(=O)Nc1ccc(Cl)c(NC(=O)C(Oc2ccc(S(=O)(=O)c3ccc(OCc4ccccc4)cc3)cc2)C(=O)C(C)(C)C)c1` (stereo not drawn) [CC-5, reference compound], under setting [4], the “CSF (curve shape factor, 100 X TBW/HBW)” value is reported as 43.5; the “HBW (half band width)” value stood at 88 nanometers; the “λ-max (maximum absorption peak of dye)” value amounted to 446.

As for `CCC(C)(C)c1ccc(OCCCC(=O)Nc2ccc(Cl)c(NC(=O)C(Oc3ccc(S(=O)(=O)c4ccc(OCc5ccccc5)cc4)cc3)C(=O)C(C)(C)C)c2)c(C(C)(C)CC)c1` (stereo not drawn) [CC-6, reference compound], under setting [4], the “CSF (curve shape factor, 100 X TBW/HBW)” value was found to be 42.0; the “HBW (half band width)” value worked out at 85 nanometers; the “λ-max (maximum absorption peak of dye)” value was determined as 441.

Consider `CCCCC(Oc1ccc(S(=O)(=O)c2ccc(OCc3ccccc3)cc2)cc1)C(=O)Nc1ccc(Cl)c(NC(=O)C(Oc2ccc(S(=O)(=O)c3ccc(O)cc3)cc2)C(=O)C(C)(C)C)c1` (stereo not drawn) [CC-7, reference compound], for which, under setting [4], the “CSF (curve shape factor, 100 X TBW/HBW)” value is listed as 45.2; the “HBW (half band width)” value was 85 nanometers; the “λ-max (maximum absorption peak of dye)” value amounted to 445.

For `CCCCC(Oc1ccc(S(=O)(=O)c2ccc(OCc3ccccc3)cc2)cc1)C(=O)Nc1cccc(NC(=O)C(Oc2ccc(S(=O)(=O)c3ccc(O)cc3)cc2)C(=O)C(C)(C)C)c1` (stereo not drawn) [CC-8, reference compound], under setting [4], the “CSF (curve shape factor, 100 X TBW/HBW)” value is reported as 44.3; the “HBW (half band width)” value is reported as 90 nanometers; the “λ-max (maximum absorption peak of dye)” value was found to be 439.

As for `CCCCCCCCCCC(Oc1ccc(S(=O)(=O)c2ccc(OCc3ccccc3)cc2)cc1)C(=O)Nc1ccc(Cl)c(NC(=O)C(Oc2ccc(S(=O)(=O)c3ccc(O)cc3)cc2)C(=O)C(C)(C)C)c1` (stereo not drawn) [CC-9, reference compound], under setting [5], the “CSF (curve shape factor, 100 X TBW/HBW)” value worked out at 43.8; the “HBW (half band width)” value is on record as 87 nanometers; the “λ-max (maximum absorption peak of dye)” value was 450.

Under setting [5], `CCCCCCCCCCCCC(Oc1ccc(S(=O)(=O)c2ccc(O)cc2)cc1)C(=O)Nc1ccc(NC(=O)CCC)c(O)c1` (stereo not drawn) [Coupler C-2] returned a CSF of 45.7%, an HBW of 144 nm and a λ-max of 655 nm.

Under setting [4], `CCCCCCCCCCCCC(Oc1ccc(S(=O)(=O)c2ccc(O)cc2)cc1)C(=O)Nc1ccc(NC(=O)C(F)(F)F)c(O)c1` (stereo not drawn) [Coupler C-3] gave a CSF of 47.8%, an HBW of 161 nm and a λ-max of 659 nm.

On to `CCCCCCCCCCC(Oc1ccc(S(=O)(=O)c2ccc(O)cc2)cc1)C(=O)Nc1cc(O)c(NC(=O)Nc2cccc(S(=O)(=O)NCCCC)c2)cc1OC` (stereo not drawn) [Coupler C-13], for which, under setting [6], the CSF is given as 44.4%, the HBW was 135 nm and the λ-max is on record as 702 nm.

For the molecule `CCCCCCCCCCC(Oc1ccc(S(=O)(=O)c2ccc(O)cc2)cc1)C(=O)Nc1cc(Cl)c(CC)c(Cl)c1O` (stereo not drawn) [Coupler C-31], under setting [4], the “CSF (curve shape factor, 100 X TBW/HBW)” value is 47.0; the “HBW (half band width)” value came out at 160 nanometers; the “λ-max (maximum absorption peak of dye)” value turned out to be 675.

As for `CCCCCCCCCCCCC(Oc1ccc(S(=O)(=O)c2ccc(O)cc2)cc1)C(=O)NC1=NN(c2c(Cl)cc(Cl)cc2Cl)C(=O)C1` (stereo not drawn) [Coupler M-3], under setting [1], the “CSF (curve shape factor, 100 X TBW/HBW)” value was 46.0; the “HBW (half band width)” value is recorded as 96 nanometers; the “λ-max (maximum absorption peak of dye)” value worked out at 546; the CSF is reported as 45.7%. Moreover, under setting [1], the HBW came to 96 nm and the λ-max came to 546 nm.

`CCCCCCCCCCC(Oc1ccc(S(=O)(=O)c2ccc(O)cc2)cc1)C(=O)Nc1ccc(CCCc2n[nH]c3cc(C)nn23)cc1` (stereo not drawn) [Coupler M-8]: under setting [3], the “CSF (curve shape factor, 100 X TBW/HBW)” value is 50.5; the “HBW (half band width)” value was determined as 86 nanometers; the “λ-max (maximum absorption peak of dye)” value came to 550.

Take `CCCCCCCCCCC(Oc1ccc(S(=O)(=O)c2ccc(O)cc2)cc1)C(=O)Nc1ccc(CCCc2n[nH]c3c(Cl)c(C)nn23)cc1` (stereo not drawn) [Coupler M-9]: under setting [7], the CSF worked out at 44.2%, the HBW amounted to 90 nm and the λ-max was found to be 558 nm.

For the molecule `CCCCCCCCCCCCC(Oc1ccc(S(=O)(=O)c2ccc(O)cc2)cc1)C(=O)Nc1ccc(Cl)c(NC2=NN(c3c(Cl)cc(Cl)cc3Cl)C(=O)C2)c1` (stereo not drawn) [Coupler M-27], under setting [1], the “CSF (curve shape factor, 100 X TBW/HBW)” value is on record as 47.0; the “HBW (half band width)” value was 91 nanometers; the “λ-max (maximum absorption peak of dye)” value is 545.

For the molecule `CCCCCCCCCCC(Oc1ccc(S(=O)(=O)c2ccc(O)cc2)cc1)C(=O)Nc1ccc(Cl)c(NC2=NN(c3c(Cl)cc(Cl)cc3Cl)C(=O)C2)c1` (stereo not drawn) [Coupler M-28], under setting [1], the “CSF (curve shape factor, 100 X TBW/HBW)” value was 46.7; the “HBW (half band width)” value was found to be 92 nanometers; the “λ-max (maximum absorption peak of dye)” value is 549. Moreover, under setting [2], the “CSF (curve shape factor, 100 X TBW/HBW)” value stood at 46.5; the “HBW (half band width)” value was 93 nanometers; the “λ-max (maximum absorption peak of dye)” value came to 541. Under setting [3], the “CSF (curve shape factor, 100 X TBW/HBW)” value amounted to 46.4; the “HBW (half band width)” value is 94 nanometers; the “λ-max (maximum absorption peak of dye)” value was found to be 549; the CSF is listed as 42.6%. Under setting [3], this molecule gave an HBW of 94 nm and a λ-max of 549 nm.

As to `CCCCCCCCCCC(Oc1ccc(S(=O)(=O)c2ccc(O)cc2)cc1)C(=O)Nc1ccc(Cl)c(NC2=NN(c3c(Cl)cc(Cl)cc3Cl)C(=O)C2SCCCCCCC)c1` (stereo not drawn) [Coupler M-29], under setting [2], the “CSF (curve shape factor, 100 X TBW/HBW)” value is given as 46.7; the “HBW (half band width)” value came out at 88 nanometers; the “λ-max (maximum absorption peak of dye)” value is reported as 540. Further, under setting [3], the “CSF (curve shape factor, 100 X TBW/HBW)” value was determined as 40.9; the “HBW (half band width)” value came out at 90 nanometers; the “λ-max (maximum absorption peak of dye)” value is 545.

For `CCCCCCCCCCC(CN(C)S(=O)(=O)c1ccc(NC2=NN(c3c(Cl)cc(S(=O)(=O)N(C)C)cc3Cl)C(=O)C2)c(Cl)c1)Oc1ccc(S(=O)(=O)c2ccc(O)cc2)cc1` (stereo not drawn) [Coupler M-32], under setting [2], the “CSF (curve shape factor, 100 X TBW/HBW)” value amounted to 40.9; the “HBW (half band width)” value is 82 nanometers; the “λ-max (maximum absorption peak of dye)” value is given as 549.

Consider `CC(C)(C)C(=O)C(Oc1ccc(S(=O)(=O)c2ccc(OCc3ccccc3)cc2)cc1)C(=O)Nc1cc(NS(=O)(=O)c2ccc(O)cc2)ccc1Cl` (stereo not drawn) [Coupler Y-1], for which, under setting [4], the “CSF (curve shape factor, 100 X TBW/HBW)” value was determined as 43.7; the “HBW (half band width)” value is recorded as 88 nanometers; the “λ-max (maximum absorption peak of dye)” value amounted to 449.

In the case of `CCCCC(Oc1ccc(S(=O)(=O)c2ccc(O)cc2)cc1)C(=O)Nc1ccc(Cl)c(NC(=O)C(Oc2ccc(S(=O)(=O)c3ccc(O)cc3)cc2)C(=O)C(C)(C)C)c1` (stereo not drawn) [Coupler Y-2], under setting [4], the “CSF (curve shape factor, 100 X TBW/HBW)” value stood at 44.4; the “HBW (half band width)” value is 90 nanometers; the “λ-max (maximum absorption peak of dye)” value was found to be 445.

Turning to `CCCCC(Oc1ccc(S(=O)(=O)c2ccc(O)cc2)cc1)C(=O)Nc1cccc(NC(=O)C(Oc2ccc(S(=O)(=O)c3ccc(O)cc3)cc2)C(=O)C(C)(C)C)c1` (stereo not drawn) [Coupler Y-3], under setting [4], the “CSF (curve shape factor, 100 X TBW/HBW)” value is 44.4; the “HBW (half band width)” value is listed as 93 nanometers; the “λ-max (maximum absorption peak of dye)” value is 441.

On to `CCCCCCCCCCC(Oc1ccc(S(=O)(=O)c2ccc(O)cc2)cc1)C(=O)Nc1ccc(Cl)c(NC(=O)C(Oc2ccc(S(=O)(=O)c3ccc(O)cc3)cc2)C(=O)C(C)(C)C)c1` (stereo not drawn) [Coupler Y-4], for which, under setting [5], the “CSF (curve shape factor, 100 X TBW/HBW)” value was 44.6; the “HBW (half band width)” value came to 90 nanometers; the “λ-max (maximum absorption peak of dye)” value is given as 450.
